Measured values published in patent US20230217926A1, “SELECTIVE HERBICIDES BASED ON SUBSTITUTED ISOXAZOLIN CARBOXAMIDES AND ISOXADIFEN-ETHYL” (BAYER AKTIENGESELLSCHAFT, priority 2020, published 2023).

Columns and labels:
HORVS Montoya = experiment: Safener seed treatment, pre-emergence herbicide, crop damage; assay type: in vivo, spring barley; design: key to Reduction [Difference]: % crop damage without safener minus % damage with safener; conditions: for Reduction [%] / Reduction [Difference]: isoxadifen-ethyl 0.25 g a.i./kg seed; for HER effect + SAF: isoxadifen-ethyl seed treatment 0.25 g a.i./kg seed; for HER effect: no safener
Procedure: (§1) For the safener seed treatment, sufficient seeds of the respective crops (spring wheat, TRZAS; spring barley, HORVS; maize, ZEAMA) were weighed into screw top glass bottles approximately twice the volume of the seeds.
(§2) The specified safeners, formulated as wettable powder (WP) were weighed out so that the specified rates (g a.i./kg seed) would be obtained, dissolved in water (1 ml water per 10 g of seeds), and added to the seeds to produce a slurry.
(§3) The bottles were capped and then placed in an overhead shaker (set at medium speed for ca. 60 minutes) so that the seeds were evenly coated with the slurry. The bottles were uncapped and the seeds were either placed on paper and dried for an interval of 3-4 hours prior to sowing, or directly sown. Seeds were placed in sandy loam soil in pots of a diameter of 7-8 cm, and covered with soil.
(§4) Pre-emergence application of the specified herbicides was done subsequently, on two sets of plants: a) seed treatment with safener, as described above
(§5) The herbicides were formulated as WP and was sprayed onto the soil surface as an aqueous suspension at an equivalent water application rate of 300 l/ha.
(§6) After application, the test plants were kept in the greenhouse under good growth conditions. At intervals up to 4 weeks after application (=28 days after treatment; DAT), % crop damage observed on the treated plants was scored visually in comparison to control plants that had not received any safener or herbicide treatment.
(§7) Values in the table below are mean values of at least 2 replicates.
Reduction[Difference]=herbicide damage without safener−herbicide damage with safener Reduction[%]=(Reduction[Difference]*100)/herbicide damage without safener b) Plant Species, Variety: HORVS Montoya, Safener (SAF): Isoxadifen-Ethyl

TRZAS Triso = experiment: as above; assay type: in vivo, spring wheat; design: key to Reduction [Difference]: % crop damage without safener minus % damage with safener; conditions: HER 15 g a.i./ha pre-emergence; for Reduction [%] / Reduction [Difference]: isoxadifen-ethyl 0.25 g a.i./kg seed; for HER effect + SAF: isoxadifen-ethyl seed treatment 0.25 g a.i./kg seed; for HER effect: no safener
Procedure: as §1, §2, §3, §4, §5, §6, §7
Reduction[Difference]=herbicide damage without safener−herbicide damage with safener Reduction[%]=(Reduction[Difference]*100)/herbicide damage without safener a) Plant Species, Variety: TRZAS Triso, Safener (SAF): Isoxadifen-Ethyl

ZEAMA Sileno [1] = experiment: as above; assay type: in vivo, maize; design: key to Reduction [Difference]: % crop damage without safener minus % damage with safener; conditions: for Reduction [%] / Reduction [Difference]: isoxadifen-ethyl 0.25 g a.i./kg seed; for HER effect + SAF: isoxadifen-ethyl seed treatment 0.25 g a.i./kg seed; for HER effect: no safener
Procedure: as §1, §2, §3, §4, §5, §6, §7
Reduction[Difference]=herbicide damage without safener−herbicide damage with safener Reduction[%]=(Reduction[Difference]*100)/herbicide damage without safener […]
c) Plant Species, Variety: ZEAMA Sileno, Safener (SAF): Isoxadifen-Ethyl

ZEAMA Sileno [2] = experiment: Tank-mix post-emergence crop damage, greenhouse, visual assessment; assay type: in vivo, maize; design: key to Reduction [Difference]: % points: herbicide damage without safener − damage with safener; conditions: for HER effect + SAF / Reduction [%] / Reduction [Difference]: Final; for HER effect: no safener, Final assessment
Procedure: Seeds of crops (spring wheat, TRZAS; spring barley, HORVS; maize, ZEAMA) were placed in sandy loam soil in peat pots, covered with soil and cultivated in a greenhouse under good growth conditions. Two to three weeks after sowing, the test plants were treated at the 1 to 3-leaf stage. The herbicide/safener active compound combinations according to the invention, formulated as wettable powders or emulsion concentrates, and, in parallel tests, the correspondingly formulated individual active compounds were sprayed onto the green parts of the plants in various dosages using an amount of water of 300 l/ha (converted).
The pots were returned under good growing conditions in a glasshouse and a visual assessment of herbicidal effects was made at intervals from 1 to 3 weeks after herbicide application (DAT=days after treatment). Assessment was on a percentage basis in comparison with untreated control plants (0%=no injury, 100%=complete kill).
Reduction[Difference]=herbicide damage without safener−herbicide damage with safener Reduction[%]=(Reduction[Difference]*100)/herbicide damage without safener
a) Plant Species, Variety: ZEAMA Sileno, Safener (SAF): Isoxadifen-Ethyl

[3] = HER 5 g a.i./ha pre-emergence, 21 DAT (Final)
[4] = HER 15 g a.i./ha pre-emergence, 21 DAT (Final)
[5] = HER 15 g a.i./ha pre-emergence, 11 DAT (Interim)
[6] = HER 40 g a.i./ha pre-emergence, 14 DAT
[7] = HER 8 g a.i./ha + isoxadifen-ethyl 50 g a.i./ha
[8] = HER 8 g a.i./ha, isoxadifen-ethyl 50 g a.i./ha
[9] = HER 32 g a.i./ha + isoxadifen-ethyl 100 g a.i./ha
[10] = HER 32 g a.i./ha, isoxadifen-ethyl 100 g a.i./ha
[11] = HER 80 g a.i./ha pre-emergence, 14 DAT
[12] = HER 80 g a.i./ha pre-emergence, 26 DAT

SMILES | Reduction [%] (HORVS Montoya; [4]) | Reduction [Difference] (HORVS Montoya; [4]) | HER effect + SAF (HORVS Montoya; [4]) | HER effect (HORVS Montoya; [4]) | Reduction [%] (TRZAS Triso; 11 DAT (Interim)) | Reduction [Difference] (TRZAS Triso; 11 DAT (Interim)) | Reduction [%] (TRZAS Triso; 21 DAT (Final)) | Reduction [Difference] (TRZAS Triso; 21 DAT (Final)) | HER effect + SAF (TRZAS Triso; 11 DAT (Interim)) | HER effect + SAF (TRZAS Triso; 21 DAT (Final)) | HER effect (TRZAS Triso; 11 DAT (Interim)) | HER effect (TRZAS Triso; 21 DAT (Final)) | Reduction [%] (HORVS Montoya; [5]) | Reduction [Difference] (HORVS Montoya; [5]) | HER effect + SAF (HORVS Montoya; [5]) | HER effect (HORVS Montoya; [5]) | HER effect + SAF (ZEAMA Sileno [2]; [7]) | Reduction [%] (ZEAMA Sileno [2]; [8]) | Reduction [Difference] (ZEAMA Sileno [2]; [8]) | HER effect (ZEAMA Sileno [2]; HER 8 g a.i./ha) | further results
CC1(C(=O)NC2C=CC(C(=O)O)C2)CC(c2cc(F)cc(F)c2)=NO1 (stereo not shown) [Example 1.36] | 43% | 30 | 40% | 70% | 29% | 20 | 64% | 45 | 50% | 25% | 70% | 70% |  |  |  |  |  |  |  |  | Reduction [%] (HORVS Montoya; [3]): 44%; Reduction [Difference] (HORVS Montoya; [3]): 20; HER effect + SAF (HORVS Montoya; [3]): 25%; HER effect (HORVS Montoya; [3]): 45%
CSCCOC(=O)C1C=CC(NC(=O)C2(C(F)(F)F)CC(c3cc(F)cc(F)c3)=NO2)C1 (stereo not shown) [Example 1.7] | 83% | 25 | 5% | 30% | 56% | 25 |  |  | 20% |  | 45% |  | 50% | 25 | 25% | 50% |  |  |  |  | 
C=CC1(C(=O)NC2C=C(C(=O)OCC#N)OC2)CC(c2cc(F)cc(F)c2)=NO1 (stereo not shown) [Example 1.91] |  |  |  |  |  |  | 75% | 30 |  | 10% |  | 40% |  |  |  |  |  |  |  |  | 
COC(=O)C1C=CC(NC(=O)C2(C(F)(F)F)CC(c3cccc(F)c3)=NO2)C1 (stereo not shown) [Example 1.18] | 88% | 35 | 5% | 40% | 67% | 30 |  |  | 15% |  | 45% |  | 50% | 20 | 20% | 40% | 25% | 73% | 69 | 94% | Reduction [%] (ZEAMA Sileno [1]; [6]): 63%; Reduction [Difference] (ZEAMA Sileno [1]; [6]): 25; HER effect + SAF (ZEAMA Sileno [1]; [6]): 15%; HER effect (ZEAMA Sileno [1]; [6]): 40%; HER effect + SAF (ZEAMA Sileno [2]; [9]): 20%; Reduction [%] (ZEAMA Sileno [2]; [10]): 79%; Reduction [Difference] (ZEAMA Sileno [2]; [10]): 77; HER effect (ZEAMA Sileno [2]; HER 32 g a.i./ha): 97%
COCCOC(=O)C1C=CC(NC(=O)C2(C)CC(c3cc(Cl)cc(C#N)c3)=NO2)C1 (stereo not shown) [Example 1.5] |  |  |  |  | 80% | 20 |  |  | 5% |  | 25% |  |  |  |  |  | 18% | 79% | 67 | 85% | Reduction [%] (ZEAMA Sileno [1]; [11]): 50%; Reduction [Difference] (ZEAMA Sileno [1]; [11]): 30; Reduction [%] (ZEAMA Sileno [1]; [12]): 56%; Reduction [Difference] (ZEAMA Sileno [1]; [12]): 25; HER effect + SAF (ZEAMA Sileno [1]; [11]): 30%; HER effect + SAF (ZEAMA Sileno [1]; [12]): 20%; HER effect (ZEAMA Sileno [1]; [11]): 60%; HER effect (ZEAMA Sileno [1]; [12]): 45%; HER effect + SAF (ZEAMA Sileno [2]; [9]): 47%; Reduction [%] (ZEAMA Sileno [2]; [10]): 51%; Reduction [Difference] (ZEAMA Sileno [2]; [10]): 49; HER effect (ZEAMA Sileno [2]; HER 32 g a.i./ha): 96%
